Test results: paper PMC5467147, “Identification of a Peptide for Systemic Brain Delivery of a Morpholino Oligonucleotide in Mouse Models of Spinal Muscular Atrophy” (Nucleic Acid Therapeutics, 2017)

Experiments:
SMN2 pre-mRNA exon 7 = experiment: In vivo screening of P-PMOs in neonatal SMA mice at PND4, full-length SMN2 by RT-qPCR; set-up: species or system mouse; details: facial vein at PND4, 2.66 nmol P-PMO, harvest 7 days after treatment, normalized to total SMN2, relative to saline, mean ± SEM, n = 4–6
patients = details: human, in vivo; cited from earlier work
SMNΔ7 mice = details: newborn SMNΔ7 mice, single ICV injections (27, 54, and 81 μg) at P0; cited from earlier work
Description: PMO is used in several clinical and preclinical studies due to its high stability and low toxicity. The PMO sequence PMO20, also known as HSMN2Ex7D(−10,-29), has been previously studied by Porensky et al.. Single ICV injections (27, 54, and 81 μg) of this PMO in newborn SMNΔ7 mice at P0 increased the levels of both full-length SMN2 RNA transcript in the brain and spinal cord as well as SMN protein and yielded an increased survival of >100 days. In a similar study, Zhou et al. used the same PMO sequence [PMO20 (−10, −29)] as well as PMO18 (−10, −27) and PMO25 (−10, −34 ...

[1] = system: severe SMA (Smn1tm1Hung/tm1Hung;SMN2tg/o) mice; experiment: Survival and phenotype of severe newborn SMA mice treated at PND0 and PND2; assay type: in vivo, mouse; details: severe SMA pups
Description: Experiments were carried out in the Biomedical Sciences Unit, University of Oxford, according to procedures authorized by the UK Home Office and approved by the Unit Approval Board. Experiments were carried out using the SMA-like mouse strain FVB.Cg-Smn1^tm1HungTg(SMN2)2Hung/J. For the purposes of welfare, the peptide screen was carried out on hemizygotic (Smn1^tm1Hung/wt;SMN2^tg/tg) pups generated as previously described. Each litter (n = 4–6 per P-PMO) at PND4 was injected with P-PMO (2.6 nmol) in 10–15 μL of 0.9% saline. The control litter was injected with 0.9% saline. Neonatal mice were euthanized 7 days postinjection and brains, kidneys, and quadriceps were extracted and frozen on dry ice before RNA extraction. The Br-ApoE (K→A)-PMO and Br-ApoE (K→A)-scrambled PMO were further analyzed in homozygotic pups (Smn1^tm1Hung/tm1Hung;SMN2^tg/o) generated as previously described. Pups used for phenotype assessment were injected with 10 μg/g (1 nmol) Br-ApoE (K→A)-PMO, Br-ApoE (K→A)-scrambled PMO, SMA-PMO through the facial vein at PND0 and PND2. Treated animals were weighed daily and observed for survival longevity. A humane endpoint was determined by mobility and weight. Animals who had reached their humane endpoint were euthanized by rising CO2.
Pups were also tested from PND2 to PND12 for hindlimb strength and […]. Hindlimb strength was scored using a hindlimb suspension (HLS) test developed by PsychoGenics, Inc. and described in the standardized protocols and procedures for preclinical studies by TREAT-NMD. The HLS score relates to the position of the legs and tail of pups suspended by their hindlimbs onto the lip of a 50-cc test tube. A score of 0 − 4 is given with the 0 relating to the weakest phenotype (feet clasped and tail down) and a 4 given to the strongest phenotype (legs spread and tail up). For the purposes of reproducibility, factors such as leg pulls and time were left out of the analysis. Righting reflex was measured by placing pups on their back and timing their ability to right themselves onto all four paws.

Row | Substance | full-length SMN2 transcript, Brain (SMN2 pre-mRNA exon 7) | full-length SMN2 transcript, Kidney (SMN2 pre-mRNA exon 7) | full-length SMN2 transcript, Quad (quadriceps) (SMN2 pre-mRNA exon 7) | patients who developed side effects such as headache, back pain, and postlumbar puncture syndromes (patients) | survival (SMNΔ7 mice) | age range (survival) ([1]; 10 μg/g facial vein at PND0 and PND2, days by b51, saline 6–13) | median survival ([1]; two doses of 10 mg/kg (10 μg/g) facial vein at PND0 and PND2, saline 10.5 days) | hindlimb strength (hindlimb suspension tube test) ([1]; two doses of 10 mg/kg at PND0 and PND2, PND2 to PND12)
1 | AngioPep-2 | 1 ± 0.03 | 1.07 ± 0.07 | 1.24 ± 0.1 | – | – | – | – | –
2 | Nusinersen | – | – | – | 32 % of patients | – | – | – | –
3 | SMA-PMO: unconjugated 20-mer PMO for SMN2 exon-7 inclusion, 5′-ATTCACTTTCATAATGCTGG-3′ (all phosphorodiamidate morpholino (PMO)) | 1 ± 0.02 | 1 ± 0.04 | 1.25 ± 0.05 | – | > 100 days | 11–49 | 29 days | gradual decline in muscle strength
